Details: Liquid

CCCCCCCC[n+]1ccn(C)c1.F[P-](F)(F)(F)(F)F [1-octyl-3-methylimidazolium hexafluorophosphate]
Details | mass density [kg/m3]
293.15 K, 101.33 kPa, Vibrating tube method | 1240.8
312.8 K, 10000 kPa, Bellows volumetry | 1230
312.8 K, 20000 kPa, Bellows volumetry | 1236
312.8 K, 30000 kPa, Bellows volumetry | 1241
312.8 K, 40000 kPa, Bellows volumetry | 1247
312.8 K, 50000 kPa, Bellows volumetry | 1252
312.8 K, 60000 kPa, Bellows volumetry | 1257
312.8 K, 70000 kPa, Bellows volumetry | 1261
312.8 K, 80000 kPa, Bellows volumetry | 1266
312.8 K, 90000 kPa, Bellows volumetry | 1270
312.8 K, 100000 kPa, Bellows volumetry | 1275
312.8 K, 110000 kPa, Bellows volumetry | 1279
312.8 K, 120000 kPa, Bellows volumetry | 1283
312.8 K, 130000 kPa, Bellows volumetry | 1287
312.8 K, 140000 kPa, Bellows volumetry | 1291
312.8 K, 150000 kPa, Bellows volumetry | 1294
312.8 K, 160000 kPa, Bellows volumetry | 1298
312.8 K, 170000 kPa, Bellows volumetry | 1302
312.8 K, 180000 kPa, Bellows volumetry | 1305
312.8 K, 190000 kPa, Bellows volumetry | 1309
312.8 K, 200000 kPa, Bellows volumetry | 1312
313.15 K, 101.33 kPa, Vibrating tube method | 1225
332.6 K, 10000 kPa, Bellows volumetry | 1215
332.6 K, 20000 kPa, Bellows volumetry | 1221
332.6 K, 30000 kPa, Bellows volumetry | 1227
332.6 K, 40000 kPa, Bellows volumetry | 1233
332.6 K, 50000 kPa, Bellows volumetry | 1238
332.6 K, 60000 kPa, Bellows volumetry | 1243
332.6 K, 70000 kPa, Bellows volumetry | 1248
332.6 K, 80000 kPa, Bellows volumetry | 1253
332.6 K, 90000 kPa, Bellows volumetry | 1257
332.6 K, 100000 kPa, Bellows volumetry | 1262
332.6 K, 110000 kPa, Bellows volumetry | 1266
332.6 K, 120000 kPa, Bellows volumetry | 1270
332.6 K, 130000 kPa, Bellows volumetry | 1274
332.6 K, 140000 kPa, Bellows volumetry | 1278
332.6 K, 150000 kPa, Bellows volumetry | 1282
332.6 K, 160000 kPa, Bellows volumetry | 1286
332.6 K, 170000 kPa, Bellows volumetry | 1290
332.6 K, 180000 kPa, Bellows volumetry | 1293
332.6 K, 190000 kPa, Bellows volumetry | 1297
332.6 K, 200000 kPa, Bellows volumetry | 1300
333.15 K, 101.33 kPa, Vibrating tube method | 1210
352.6 K, 10000 kPa, Bellows volumetry | 1200
352.6 K, 20000 kPa, Bellows volumetry | 1207
352.6 K, 30000 kPa, Bellows volumetry | 1213
352.6 K, 40000 kPa, Bellows volumetry | 1219
352.6 K, 50000 kPa, Bellows volumetry | 1224
352.6 K, 60000 kPa, Bellows volumetry | 1230
352.6 K, 70000 kPa, Bellows volumetry | 1235
352.6 K, 80000 kPa, Bellows volumetry | 1240
352.6 K, 90000 kPa, Bellows volumetry | 1245
352.6 K, 100000 kPa, Bellows volumetry | 1249
352.6 K, 110000 kPa, Bellows volumetry | 1254
352.6 K, 120000 kPa, Bellows volumetry | 1258
352.6 K, 130000 kPa, Bellows volumetry | 1262
352.6 K, 140000 kPa, Bellows volumetry | 1266
352.6 K, 150000 kPa, Bellows volumetry | 1270
352.6 K, 160000 kPa, Bellows volumetry | 1274
352.6 K, 170000 kPa, Bellows volumetry | 1278
352.6 K, 180000 kPa, Bellows volumetry | 1282
352.6 K, 190000 kPa, Bellows volumetry | 1286
352.6 K, 200000 kPa, Bellows volumetry | 1289
353.15 K, 101.33 kPa, Vibrating tube method | 1195.2
372.8 K, 10000 kPa, Bellows volumetry | 1186
372.8 K, 20000 kPa, Bellows volumetry | 1193
372.8 K, 30000 kPa, Bellows volumetry | 1199
372.8 K, 40000 kPa, Bellows volumetry | 1205
372.8 K, 50000 kPa, Bellows volumetry | 1211
372.8 K, 60000 kPa, Bellows volumetry | 1217
372.8 K, 70000 kPa, Bellows volumetry | 1222
372.8 K, 80000 kPa, Bellows volumetry | 1227
372.8 K, 90000 kPa, Bellows volumetry | 1232
372.8 K, 100000 kPa, Bellows volumetry | 1237
372.8 K, 110000 kPa, Bellows volumetry | 1242
372.8 K, 120000 kPa, Bellows volumetry | 1246
372.8 K, 130000 kPa, Bellows volumetry | 1250
372.8 K, 140000 kPa, Bellows volumetry | 1255
372.8 K, 150000 kPa, Bellows volumetry | 1259
372.8 K, 160000 kPa, Bellows volumetry | 1263
372.8 K, 170000 kPa, Bellows volumetry | 1267
372.8 K, 180000 kPa, Bellows volumetry | 1271
372.8 K, 190000 kPa, Bellows volumetry | 1274
372.8 K, 200000 kPa, Bellows volumetry | 1278
392.8 K, 10000 kPa, Bellows volumetry | 1171
392.8 K, 20000 kPa, Bellows volumetry | 1179
392.8 K, 30000 kPa, Bellows volumetry | 1186
392.8 K, 40000 kPa, Bellows volumetry | 1192
392.8 K, 50000 kPa, Bellows volumetry | 1198
392.8 K, 60000 kPa, Bellows volumetry | 1204
392.8 K, 70000 kPa, Bellows volumetry | 1209
392.8 K, 80000 kPa, Bellows volumetry | 1215
392.8 K, 90000 kPa, Bellows volumetry | 1220
392.8 K, 100000 kPa, Bellows volumetry | 1225
392.8 K, 110000 kPa, Bellows volumetry | 1230
392.8 K, 120000 kPa, Bellows volumetry | 1235
392.8 K, 130000 kPa, Bellows volumetry | 1239
392.8 K, 140000 kPa, Bellows volumetry | 1243
392.8 K, 150000 kPa, Bellows volumetry | 1248
392.8 K, 160000 kPa, Bellows volumetry | 1252
392.8 K, 170000 kPa, Bellows volumetry | 1256
392.8 K, 180000 kPa, Bellows volumetry | 1260
392.8 K, 190000 kPa, Bellows volumetry | 1264
392.8 K, 200000 kPa, Bellows volumetry | 1268
413 K, 10000 kPa, Bellows volumetry | 1157
413 K, 20000 kPa, Bellows volumetry | 1165
413 K, 30000 kPa, Bellows volumetry | 1172
413 K, 40000 kPa, Bellows volumetry | 1179
413 K, 50000 kPa, Bellows volumetry | 1185
413 K, 60000 kPa, Bellows volumetry | 1191
413 K, 70000 kPa, Bellows volumetry | 1197
413 K, 80000 kPa, Bellows volumetry | 1203
413 K, 90000 kPa, Bellows volumetry | 1208
413 K, 100000 kPa, Bellows volumetry | 1213
413 K, 110000 kPa, Bellows volumetry | 1218
413 K, 120000 kPa, Bellows volumetry | 1223
413 K, 130000 kPa, Bellows volumetry | 1228
413 K, 140000 kPa, Bellows volumetry | 1232
413 K, 150000 kPa, Bellows volumetry | 1237
413 K, 160000 kPa, Bellows volumetry | 1241
413 K, 170000 kPa, Bellows volumetry | 1245
413 K, 180000 kPa, Bellows volumetry | 1249
413 K, 190000 kPa, Bellows volumetry | 1253
413 K, 200000 kPa, Bellows volumetry | 1257
432.7 K, 10000 kPa, Bellows volumetry | 1144
432.7 K, 20000 kPa, Bellows volumetry | 1152
432.7 K, 30000 kPa, Bellows volumetry | 1159
432.7 K, 40000 kPa, Bellows volumetry | 1166
432.7 K, 50000 kPa, Bellows volumetry | 1173
432.7 K, 60000 kPa, Bellows volumetry | 1179
432.7 K, 70000 kPa, Bellows volumetry | 1185
432.7 K, 80000 kPa, Bellows volumetry | 1191
432.7 K, 90000 kPa, Bellows volumetry | 1197
432.7 K, 100000 kPa, Bellows volumetry | 1202
432.7 K, 110000 kPa, Bellows volumetry | 1207
432.7 K, 120000 kPa, Bellows volumetry | 1212
432.7 K, 130000 kPa, Bellows volumetry | 1217
432.7 K, 140000 kPa, Bellows volumetry | 1222
432.7 K, 150000 kPa, Bellows volumetry | 1226
432.7 K, 160000 kPa, Bellows volumetry | 1231
432.7 K, 170000 kPa, Bellows volumetry | 1235
432.7 K, 180000 kPa, Bellows volumetry | 1239
432.7 K, 190000 kPa, Bellows volumetry | 1243
432.7 K, 200000 kPa, Bellows volumetry | 1247
452.5 K, 10000 kPa, Bellows volumetry | 1130
452.5 K, 20000 kPa, Bellows volumetry | 1138
452.5 K, 30000 kPa, Bellows volumetry | 1146
452.5 K, 40000 kPa, Bellows volumetry | 1153
452.5 K, 50000 kPa, Bellows volumetry | 1160
452.5 K, 60000 kPa, Bellows volumetry | 1167
452.5 K, 70000 kPa, Bellows volumetry | 1173
452.5 K, 80000 kPa, Bellows volumetry | 1179
452.5 K, 90000 kPa, Bellows volumetry | 1185
452.5 K, 100000 kPa, Bellows volumetry | 1191
452.5 K, 110000 kPa, Bellows volumetry | 1196
452.5 K, 120000 kPa, Bellows volumetry | 1201
452.5 K, 130000 kPa, Bellows volumetry | 1206
452.5 K, 140000 kPa, Bellows volumetry | 1211
452.5 K, 150000 kPa, Bellows volumetry | 1216
452.5 K, 160000 kPa, Bellows volumetry | 1220
452.5 K, 170000 kPa, Bellows volumetry | 1225
452.5 K, 180000 kPa, Bellows volumetry | 1229
452.5 K, 190000 kPa, Bellows volumetry | 1233
452.5 K, 200000 kPa, Bellows volumetry | 1237
472.3 K, 10000 kPa, Bellows volumetry | 1116
472.3 K, 20000 kPa, Bellows volumetry | 1125
472.3 K, 30000 kPa, Bellows volumetry | 1133
472.3 K, 40000 kPa, Bellows volumetry | 1141
472.3 K, 50000 kPa, Bellows volumetry | 1148
472.3 K, 60000 kPa, Bellows volumetry | 1155
472.3 K, 70000 kPa, Bellows volumetry | 1162
472.3 K, 80000 kPa, Bellows volumetry | 1168
472.3 K, 90000 kPa, Bellows volumetry | 1174
472.3 K, 100000 kPa, Bellows volumetry | 1180
472.3 K, 110000 kPa, Bellows volumetry | 1185
472.3 K, 120000 kPa, Bellows volumetry | 1191
472.3 K, 130000 kPa, Bellows volumetry | 1196
472.3 K, 140000 kPa, Bellows volumetry | 1201
472.3 K, 150000 kPa, Bellows volumetry | 1205
472.3 K, 160000 kPa, Bellows volumetry | 1210
472.3 K, 170000 kPa, Bellows volumetry | 1215
472.3 K, 180000 kPa, Bellows volumetry | 1219
472.3 K, 190000 kPa, Bellows volumetry | 1223
472.3 K, 200000 kPa, Bellows volumetry | 1228

Reference: the NIST ThermoML archive (doi:10.1021/je800224k)
